{"source": "paper PMC5218480", "about": "(PLoS ONE, 2017)", "system": "MV-4-11 cells", "assay": "Gene expression microarray analysis (Affymetrix PrimeView) and GSEA", "type": "cell-based, human", "set-up": "RFU PODN (11730768_x_at) / Fold change /veh PODN (11730768_x_at) / RFU LINC00158 (11744669_a_at) / Fold change /veh LINC00158 (11744669_a_at) / RFU DUSP10 (11751237_a_at) / Fold change /veh DUSP10 (11751237_a_at) / RFU ID3 (11757404_x_at) / Fold change /veh ID3 (11757404_x_at) / RFU PLEKHG5 (11737974_s_at) / Fold change /veh PLEKHG5 (11737974_s_at) / RFU LRRC4B (11730491_at) / Fold change /veh LRRC4B (11730491_at) / RFU GIMAP4 (11747438_a_at) / Fold change /veh GIMAP4 (11747438_a_at) / RFU KRT8 (11758183_x_at) / Fold change /veh KRT8 (11758183_x_at) / RFU CNN1 (11734310_a_at) / Fold change /veh CNN1 (11734310_a_at) / RFU VPS37D (11726825_at) / Fold change /veh VPS37D (11726825_at) / RFU C10orf10 (11716522_x_at) / Fold change /veh C10orf10 (11716522_x_at) / RFU KIR2DL2 /// KIR2DL4 /// KIR2DL5A /// KIR2DL5B /// KIR2DS1 /// KIR2DS2 /// KIR2DS3 /// KIR2DS4 /// KIR3DL3 /// KIR3DL3 /// KIR3DS1 (11738374_at) / Fold change /veh KIR2DL2 /// KIR2DL4 /// KIR2DL5A /// KIR2DL5B /// KIR2DS1 /// KIR2DS2 /// KIR2DS3 /// KIR2DS4 /// KIR3DL3 /// KIR3DL3 /// KIR3DS1 (11738374_at) / RFU C1QL1 (11718748_at) / Fold change /veh C1QL1 (11718748_at) / RFU TMPRSS4 (11747572_a_at) / Fold change /veh TMPRSS4 (11747572_a_at) / RFU HAMP (11756126_x_at) / Fold change /veh HAMP (11756126_x_at) / RFU RNFT2 (11725882_a_at) / Fold change /veh RNFT2 (11725882_a_at) / RFU NR4A2 (11747474_a_at) / Fold change /veh NR4A2 (11747474_a_at) / RFU ABCC12 (11746883_a_at) / Fold change /veh ABCC12 (11746883_a_at) / RFU TMEM136 (11760407_x_at) / Fold change /veh TMEM136 (11760407_x_at) / RFU CLDN22 /// WWC2 (11732394_at) / Fold change /veh CLDN22 /// WWC2 (11732394_at) / RFU HLA-DPB1 (11760878_x_at) / Fold change /veh HLA-DPB1 (11760878_x_at) / RFU SPINT1 (11716480_a_at) / Fold change /veh SPINT1 (11716480_a_at) / RFU GAP43 (11754022_s_at) / Fold change /veh GAP43 (11754022_s_at) / RFU A4GNT (11735810_at) / Fold change /veh A4GNT (11735810_at) / RFU PRB3 (11715151_x_at) / Fold change /veh PRB3 (11715151_x_at) / RFU TUBB4B (11761932_at) / Fold change /veh TUBB4B (11761932_at) / RFU CAPN14 (11732068_a_at) / Fold change /veh CAPN14 (11732068_a_at) / RFU TMCC2 (11721928_a_at) / Fold change /veh TMCC2 (11721928_a_at) / RFU IRGQ (11745062_a_at) / Fold change /veh IRGQ (11745062_a_at) / RFU FAM174B (11720279_a_at) / Fold change /veh FAM174B (11720279_a_at) / RFU TMPRSS4 (11748680_a_at) / Fold change /veh TMPRSS4 (11748680_a_at) / RFU FAM212B (11763350_a_at) / Fold change /veh FAM212B (11763350_a_at) / RFU PLEKHG5 (11743358_a_at) / Fold change /veh PLEKHG5 (11743358_a_at) / RFU ZSCAN30 (11745921_a_at) / Fold change /veh ZSCAN30 (11745921_a_at) / RFU CMKLR1 (11741424_a_at) / Fold change /veh CMKLR1 (11741424_a_at) / RFU LOC101060620 /// MAPK8IP1 (11723275_at) / Fold change /veh LOC101060620 /// MAPK8IP1 (11723275_at) / RFU SPTSSB (11747773_x_at) / Fold change /veh SPTSSB (11747773_x_at) / RFU PRSS12 (11739890_at) / Fold change /veh PRSS12 (11739890_at) / RFU BIN1 (11741810_x_at) / Fold change /veh BIN1 (11741810_x_at) / RFU WNT11 (11732464_a_at) / Fold change /veh WNT11 (11732464_a_at) / RFU C10orf10 (11716521_a_at) / Fold change /veh C10orf10 (11716521_a_at) / RFU C5orf56 (11738089_at) / Fold change /veh C5orf56 (11738089_at) / RFU CYB561 (11721691_x_at) / Fold change /veh CYB561 (11721691_x_at) / RFU ANKRD19P (11752326_a_at) / Fold change /veh ANKRD19P (11752326_a_at) / RFU OR2T12 /// OR2T33 /// OR2T8 (11738714_s_at) / Fold change /veh OR2T12 /// OR2T33 /// OR2T8 (11738714_s_at) / RFU VCAN (11748164_a_at) / Fold change /veh VCAN (11748164_a_at) / RFU JSRP1 (11732532_at) / Fold change /veh JSRP1 (11732532_at) / RFU KRTAP10-11 (11738290_x_at) / Fold change /veh KRTAP10-11 (11738290_x_at) / RFU MYO3A (11730013_a_at) / Fold change /veh MYO3A (11730013_a_at) / RFU EBF3 (11725865_a_at) / Fold change /veh EBF3 (11725865_a_at) / RFU CAMK2N1 (11719241_x_at) / Fold change /veh CAMK2N1 (11719241_x_at) / RFU C5orf56 (11738088_a_at) / Fold change /veh C5orf56 (11738088_a_at) / RFU OLFML3 (11715873_a_at) / Fold change /veh OLFML3 (11715873_a_at) / RFU LOC100653217 /// NTM (11731650_a_at) / Fold change /veh LOC100653217 /// NTM (11731650_a_at) / RFU MAPK11 (11762145_a_at) / Fold change /veh MAPK11 (11762145_a_at) / RFU FIZ1 (11724087_x_at) / Fold change /veh FIZ1 (11724087_x_at) / RFU OASL (11726364_x_at) / Fold change /veh OASL (11726364_x_at) / RFU SOX15 (11748057_x_at) / Fold change /veh SOX15 (11748057_x_at) / RFU CD79A (11719716_a_at) / Fold change /veh CD79A (11719716_a_at) / RFU HIST1H1D (11736915_at) / Fold change /veh HIST1H1D (11736915_at) / RFU CASKIN2 (11723855_a_at) / Fold change /veh CASKIN2 (11723855_a_at) / RFU LOC730098 (11760151_x_at) / Fold change /veh LOC730098 (11760151_x_at) / RFU OR4N2 (11742367_at) / Fold change /veh OR4N2 (11742367_at) / RFU PRRT2 (11749266_a_at) / Fold change /veh PRRT2 (11749266_a_at) / RFU SNX32 (11753110_a_at) / Fold change /veh SNX32 (11753110_a_at) / RFU CDHR5 (11726645_a_at) / Fold change /veh CDHR5 (11726645_a_at) / RFU RCAN1 (11760418_a_at) / Fold change /veh RCAN1 (11760418_a_at) / RFU FAM167A (11723789_a_at) / Fold change /veh FAM167A (11723789_a_at) / RFU FAM26E (11764081_at) / Fold change /veh FAM26E (11764081_at) / RFU ISYNA1 (11749810_s_at) / Fold change /veh ISYNA1 (11749810_s_at) / RFU ACY1 (11761880_at) / Fold change /veh ACY1 (11761880_at) / RFU 11764098_at / Fold change /veh 11764098_at / RFU SAMD14 (11745864_x_at) / Fold change /veh SAMD14 (11745864_x_at) / RFU NPB (11741838_a_at) / Fold change /veh NPB (11741838_a_at) / RFU TMPRSS6 (11731388_a_at) / Fold change /veh TMPRSS6 (11731388_a_at) / RFU KRTAP10-2 (11738614_at) / Fold change /veh KRTAP10-2 (11738614_at) / RFU ARHGAP8 /// PRR5-ARHGAP8 (11727945_x_at) / Fold change /veh ARHGAP8 /// PRR5-ARHGAP8 (11727945_x_at) / RFU KRTAP5-7 /// NADSYN1 (11734609_at) / Fold change /veh KRTAP5-7 /// NADSYN1 (11734609_at) / RFU RASL12 (11751679_a_at) / Fold change /veh RASL12 (11751679_a_at) / RFU CDKN2B (11736163_a_at) / Fold change /veh CDKN2B (11736163_a_at) / RFU PRF1 (11729649_at) / Fold change /veh PRF1 (11729649_at) / RFU, ZNF638 /// ZNF638-IT1 / Fold change vs veh, ZNF638 /// ZNF638-IT1 / RFU, PANK3 / Fold change vs veh, PANK3 / RFU, SH3YL1 / Fold change vs veh, SH3YL1 / RFU, ZEB2 / Fold change vs veh, ZEB2 / RFU, NRIP1 / Fold change vs veh, NRIP1 / RFU, PTTG1IP / Fold change vs veh, PTTG1IP / RFU, CAPN2 / Fold change vs veh, CAPN2 / RFU, MED14 / Fold change vs veh, MED14 / RFU, SNORA58 / Fold change vs veh, SNORA58 / RFU, C1orf63 / Fold change vs veh, C1orf63 / RFU, LRRFIP1 / Fold change vs veh, LRRFIP1 / RFU, NDUFAF7 / Fold change vs veh, NDUFAF7 / RFU, SLC12A2 / Fold change vs veh, SLC12A2 / RFU, IBTK / Fold change vs veh, IBTK / RFU, ESF1 / Fold change vs veh, ESF1 / Fold change vs veh, TMEM50B / RFU, TAOK1 / Fold change vs veh, TAOK1 / RFU, ACBD3 / Fold change vs veh, ACBD3 / RFU, TMA16 / Fold change vs veh, TMA16 / RFU, RWDD3 / Fold change vs veh, RWDD3 / RFU, BCAT1 / Fold change vs veh, BCAT1 / RFU, EDEM3 / Fold change vs veh, EDEM3 / RFU, TMEM33 / Fold change vs veh, TMEM33 / RFU, WDR75 / Fold change vs veh, WDR75 / RFU, AHCTF1 / Fold change vs veh, AHCTF1 / RFU, TFRC / Fold change vs veh, TFRC / RFU, ZDHHC17 / Fold change vs veh, ZDHHC17 / RFU, NOM1 / Fold change vs veh, NOM1 / RFU, ARL8B / Fold change vs veh, ARL8B / RFU, ZBTB11 / Fold change vs veh, ZBTB11 / RFU, TAMM41 / Fold change vs veh, TAMM41 / RFU, KIAA1704 /// LOC100996395 / Fold change vs veh, KIAA1704 /// LOC100996395 / RFU, ING1 / Fold change vs veh, ING1 / RFU, TRMT61B / Fold change vs veh, TRMT61B / RFU, FUBP3 / Fold change vs veh, FUBP3 / RFU, TP53 / Fold change vs veh, TP53 / RFU, TNKS2 / Fold change vs veh, TNKS2 / RFU, ZFP14 / Fold change vs veh, ZFP14 / RFU, ACTR2 / Fold change vs veh, ACTR2 / RFU, PPP3R1 / Fold change vs veh, PPP3R1 / RFU, PIK3R1 / Fold change vs veh, PIK3R1 / RFU, HNRNPA1 / Fold change vs veh, HNRNPA1 / RFU, RNF170 / Fold change vs veh, RNF170 / RFU, ZNF28 / Fold change vs veh, ZNF28 / RFU, RNGTT / Fold change vs veh, RNGTT / RFU, OGT / Fold change vs veh, OGT / RFU, BRD1 / Fold change vs veh, BRD1 / RFU, MARS / Fold change vs veh, MARS / RFU, ZNF655 / Fold change vs veh, ZNF655 / RFU, FAHD1 / Fold change vs veh, FAHD1 / RFU, BDP1 / Fold change vs veh, BDP1 / RFU, LRRCC1 / Fold change vs veh, LRRCC1 / RFU, ARID1A / Fold change vs veh, ARID1A / RFU, ZNF146 / Fold change vs veh, ZNF146 / RFU, ZNF330 / Fold change vs veh, ZNF330 / RFU, GPN3 / Fold change vs veh, GPN3 / RFU, C9orf123 / Fold change vs veh, C9orf123 / RFU, N4BP2L2 / Fold change vs veh, N4BP2L2 / RFU, ARFIP1 / Fold change vs veh, ARFIP1 / RFU, FAM179B / Fold change vs veh, FAM179B / RFU, BCL10 / Fold change vs veh, BCL10 / RFU, UHRF1BP1L / Fold change vs veh, UHRF1BP1L / RFU, BET1 / Fold change vs veh, BET1 / RFU, CNOT2 / Fold change vs veh, CNOT2 / RFU, ZNF268 / Fold change vs veh, ZNF268 / Fold change vs veh, ZNF507 / RFU, DGCR2 / Fold change vs veh, DGCR2 / RFU, WDSUB1 / Fold change vs veh, WDSUB1 / Fold change vs veh, HSP90B1 /// MIR3652 / RFU, ADSS / Fold change vs veh, ADSS / RFU, GK / Fold change vs veh, GK / RFU, ZNF148 / Fold change vs veh, ZNF148 / RFU, TAF9 / Fold change vs veh, TAF9 / RFU, SLC1A5 / Fold change vs veh, SLC1A5 / RFU, SLMO2 / Fold change vs veh, SLMO2 / RFU, ABCC4 / Fold change vs veh, ABCC4 / RFU, LOC101060439 /// RAP1B / Fold change vs veh, LOC101060439 /// RAP1B / RFU, RFX7 / Fold change vs veh, RFX7 / RFU, GTPBP10 / Fold change vs veh, GTPBP10 / RFU, CNEP1R1 / Fold change vs veh, CNEP1R1 / RFU, BIVM-ERCC5 /// ERCC5 / Fold change vs veh, BIVM-ERCC5 /// ERCC5 / RFU, ILF3 / Fold change vs veh, ILF3 / RFU 11762660_at / Fold change /veh 11762660_at / RFU VCAN (11757783_s_at) / Fold change /veh VCAN (11757783_s_at) / RFU DDX43 (11728927_at) / Fold change /veh DDX43 (11728927_at) / RFU KRT8 (11758188_x_at) / Fold change /veh KRT8 (11758188_x_at) / RFU NKD1 (11759106_at) / Fold change /veh NKD1 (11759106_at) / RFU SRD5A1 (11742802_a_at) / Fold change /veh SRD5A1 (11742802_a_at) / RFU TPSAB1 /// TPSB2 (11721975_s_at) / Fold change /veh TPSAB1 /// TPSB2 (11721975_s_at) / RFU GSTM3 (11746129_a_at) / Fold change /veh GSTM3 (11746129_a_at) / RFU IL23R (11737362_x_at) / Fold change /veh IL23R (11737362_x_at) / RFU TMEM51 (11727254_a_at) / Fold change /veh TMEM51 (11727254_a_at) / RFU PIWIL2 (11732686_x_at) / Fold change /veh PIWIL2 (11732686_x_at) / RFU ORM1 (11744905_x_at) / Fold change /veh ORM1 (11744905_x_at) / RFU CCDC152 (11743942_at) / Fold change /veh CCDC152 (11743942_at) / RFU ECM1 (11717891_a_at) / Fold change /veh ECM1 (11717891_a_at) / RFU IL23R (11748794_a_at) / Fold change /veh IL23R (11748794_a_at) / RFU TNFAIP8L3 (11732012_x_at) / Fold change /veh TNFAIP8L3 (11732012_x_at) / RFU MBOAT4 (11741988_at) / Fold change /veh MBOAT4 (11741988_at) / RFU 11764193_at / Fold change /veh 11764193_at / RFU TMEM53 (11763286_at) / Fold change /veh TMEM53 (11763286_at) / RFU MAGEB2 (11727129_at) / Fold change /veh MAGEB2 (11727129_at) / RFU TMEM200A (11744735_a_at) / Fold change /veh TMEM200A (11744735_a_at) / RFU CCDC152 (11751479_a_at) / Fold change /veh CCDC152 (11751479_a_at) / RFU FAM211A (11726209_a_at) / Fold change /veh FAM211A (11726209_a_at) / RFU RGS16 (11746705_a_at) / Fold change /veh RGS16 (11746705_a_at) / RFU VCAN (11755009_s_at) / Fold change /veh VCAN (11755009_s_at) / RFU RHOB (11743442_s_at) / Fold change /veh RHOB (11743442_s_at) / RFU RGS16 (11720943_a_at) / Fold change /veh RGS16 (11720943_a_at) / RFU RGS16 (11720944_at) / Fold change /veh RGS16 (11720944_at) / RFU, VPS4B / Fold change vs veh, VPS4B / RFU, CREB1 / Fold change vs veh, CREB1 / RFU, DNAJC13 / Fold change vs veh, DNAJC13 / RFU, GNAQ / Fold change vs veh, GNAQ / RFU, CDK5R1 / Fold change vs veh, CDK5R1 / RFU, ZRANB3 / Fold change vs veh, ZRANB3 / RFU, CUL4A / Fold change vs veh, CUL4A / RFU, CCNY / Fold change vs veh, CCNY / RFU, UFL1 / Fold change vs veh, UFL1 / RFU, COG3 / Fold change vs veh, COG3 / RFU, DIAPH2 / Fold change vs veh, DIAPH2 / RFU, SKA2 / Fold change vs veh, SKA2 / RFU, AFF3 / Fold change vs veh, AFF3 / RFU, LMF1 / Fold change vs veh, LMF1 / RFU, IPO11 / Fold change vs veh, IPO11 / RFU, DFFB / Fold change vs veh, DFFB / RFU, FOXP1 / Fold change vs veh, FOXP1 / RFU, CARD8 / Fold change vs veh, CARD8 / RFU, STRN3 / Fold change vs veh, STRN3 / RFU, ADK / Fold change vs veh, ADK / RFU, RASSF2 / Fold change vs veh, RASSF2 / RFU, WIPF1 / Fold change vs veh, WIPF1 / RFU, LARP1B / Fold change vs veh, LARP1B / RFU, RASA1 / Fold change vs veh, RASA1 / RFU, RB1 / Fold change vs veh, RB1 / RFU, PPFIA1 / Fold change vs veh, PPFIA1 / RFU, MAT2A / Fold change vs veh, MAT2A / RFU, CCT5 / Fold change vs veh, CCT5 / RFU, WDR92 / Fold change vs veh, WDR92 / RFU, CUX1 / Fold change vs veh, CUX1 / RFU, TTC7A / Fold change vs veh, TTC7A / RFU, TMEM135 / Fold change vs veh, TMEM135 / RFU, DEPTOR / Fold change vs veh, DEPTOR / RFU, CPM / Fold change vs veh, CPM / RFU, DNAJB6 / Fold change vs veh, DNAJB6 / RFU, CACNA2D3 / Fold change vs veh, CACNA2D3 / RFU, DTX4 / Fold change vs veh, DTX4 / RFU, TFCP2 / Fold change vs veh, TFCP2 / RFU, GMCL1 /// GMCL1P1 / Fold change vs veh, GMCL1 /// GMCL1P1 / RFU, AEBP2 / Fold change vs veh, AEBP2 / RFU, SNHG1 /// SNORD22 /// SNORD25 /// SNORD26 /// SNORD27 /// SNORD28 /// SNORD29 /// SNORD31 / Fold change vs veh, SNHG1 /// SNORD22 /// SNORD25 /// SNORD26 /// SNORD27 /// SNORD28 /// SNORD29 /// SNORD31 / Fold change (Aza/veh), C12orf56 (ProbeSet 11735607_a_at) / Fold change (ACY-1035/veh), C12orf56 (ProbeSet 11735607_a_at) / Fold change (Aza/veh), FGFR1OP (ProbeSet 11751329_s_at) / Fold change (ACY-1035/veh), FGFR1OP (ProbeSet 11751329_s_at) / Fold change (Aza/veh), VPS36 (ProbeSet 11739960_a_at) / Fold change (ACY-1035/veh), VPS36 (ProbeSet 11739960_a_at) / RFU SYPL1 (11715823_x_at) / Fold change /veh SYPL1 (11715823_x_at) / RFU IGFBP7 (11715501_s_at) / Fold change /veh IGFBP7 (11715501_s_at) / RFU REEP3 (11722064_at) / Fold change /veh REEP3 (11722064_at) / RFU IGLL1 (11728026_x_at) / Fold change /veh IGLL1 (11728026_x_at): dose or concentration left out as unconfirmed", "details": "ProbeSet 11716891_at; LIST B", "data": [{"smiles": "Nc1ccc(-c2cccs2)cc1NC(=O)c1ccc2c(c1)cc(C1CC1)n2CCN1CCOCC1", "note": "[ACY-1035]", "values": [{"measurement": "RFU, C9orf123", "value": 39.54, "unit": "RFU"}]}]}
